PubChem BioAssay AID190 (DTP/NCI, 2004)
Inconclusive results and toxic doses are left out.

Test system: AKR/Lw mice, AKR lymphoma ip, median survival T/C
Experiment: NCI In Vivo Anticancer Drug Screen. Data for tumor model Lymphoma AKR (Transplanted) (intraperitoneal) in AKR/Lw mice
Conditions: endpoint: median survival time, higher = longer survival
Procedure: The antitumor activity of compounds was measured in mice bearing transplantable tumors. Survival or tumor size were measured and the results are expressed as the measurement made in the treated group (T) divided by the measurement made in the vehicle treated control group (C). The tumor model used in this assay is Lymphoma AKR (Transplanted) (intraperitoneal) in AKR/Lw mice

[1] = dose: 100.0 mg/kg/injection, schedule: Q01DX001 (ip), vehicle: saline
[2] = dose: 200.0 mg/kg/injection, schedule: Q01DX001 (ip), vehicle: saline
[3] = dose: 400.0 mg/kg/injection, schedule: Q01DX001 (ip), vehicle: saline

COC(=O)C(COS(=O)(=O)c1ccccc1)NC(=O)OCc1ccccc1 (stereo not given)
T/C [1]: 94 % of control | T/C [2]: 97 % of control | T/C [3]: 102 % of control

N[C@@H](Cc1ccc(N(CCCl)CCCl)cc1)C(=O)O
T/C (dose: 0.25 mg/kg/injection, schedule: Q04DX008 (ip), vehicle: Klucel (hydroxypropylcellulose) (HPC)): 102 % of control | T/C (dose: 0.5 mg/kg/injection, schedule: Q04DX008 (ip), vehicle: Klucel (hydroxypropylcellulose) (HPC)): 94 % of control | T/C (dose: 0.75 mg/kg/injection, schedule: Q04DX008 (ip), vehicle: Klucel (hydroxypropylcellulose) (HPC)): 119 % of control | T/C (dose: 1.0 mg/kg/injection, schedule: Q04DX004 (ip), vehicle: Klucel (hydroxypropylcellulose) (HPC)): 123 % of control | T/C (dose: 1.0 mg/kg/injection, schedule: Q04DX004 (ip), vehicle: saline): 115 % of control | T/C (dose: 1.0 mg/kg/injection, schedule: Q04DX008 (ip), vehicle: Klucel (hydroxypropylcellulose) (HPC)): 100 % of control | T/C (dose: 2.0 mg/kg/injection, schedule: Q04DX004 (ip), vehicle: Klucel (hydroxypropylcellulose) (HPC)): 158 % of control | T/C (dose: 2.0 mg/kg/injection, schedule: Q04DX004 (ip), vehicle: saline): 107 % of control | T/C (dose: 2.0 mg/kg/injection, schedule: Q04DX008 (ip), vehicle: Klucel (hydroxypropylcellulose) (HPC)): 116 % of control | T/C (dose: 2.5 mg/kg/injection, schedule: Q01DX001 (ip), vehicle: Klucel (hydroxypropylcellulose) (HPC)): 107 % of control | T/C (dose: 3.9 mg/kg/injection, schedule: Q04DX004 (ip), vehicle: Klucel (hydroxypropylcellulose) (HPC)): 179 % of control | T/C (dose: 3.9 mg/kg/injection, schedule: Q04DX004 (ip), vehicle: saline): 307 % of control | T/C (dose: 6.0 mg/kg/injection, schedule: Q04DX004 (ip), vehicle: Klucel (hydroxypropylcellulose) (HPC)): 200 % of control | T/C (dose: 6.0 mg/kg/injection, schedule: Q04DX004 (ip), vehicle: saline): 164 % of control | T/C (dose: 7.7 mg/kg/injection, schedule: Q04DX008 (ip), vehicle: Klucel (hydroxypropylcellulose) (HPC)): 100 % of control | T/C (dose: 9.0 mg/kg/injection, schedule: Q01DX001 (ip), vehicle: Klucel (hydroxypropylcellulose) (HPC)): 150 % of control | T/C (dose: 12.0 mg/kg/injection, schedule: Q01DX001 (ip), vehicle: Klucel (hydroxypropylcellulose) (HPC)): 102 % of control | T/C (dose: 16.0 mg/kg/injection, schedule: Q01DX001 (ip), vehicle: Klucel (hydroxypropylcellulose) (HPC)): 92 % of control

CCCCCCCCCCCCCCCC(=O)N(CCC#N)CCCCCCCCCN(CCC#N)C(=O)CCCCCCCCCCCCCCC
T/C [1]: 116 % of control | T/C [2]: 94 % of control

c1cc2cc3c(cc2cc1CC1=NCCc2cc4c(cc21)OCO4)OCO3
T/C (dose: 100.0 mg/kg/injection, schedule: Q01DX001 (ip), vehicle: other): 105 % of control | T/C (dose: 100.0 mg/kg/injection, schedule: Q04DX003 (ip), vehicle: other): 100 % of control | T/C (dose: 200.0 mg/kg/injection, schedule: Q01DX001 (ip), vehicle: other): 100 % of control | T/C (dose: 200.0 mg/kg/injection, schedule: Q04DX003 (ip), vehicle: other): 100 % of control | T/C (dose: 400.0 mg/kg/injection, schedule: Q01DX001 (ip), vehicle: other): 102 % of control | T/C (dose: 400.0 mg/kg/injection, schedule: Q04DX003 (ip), vehicle: other): 100 % of control

COc1cccc2c1CCC1=C2CC2C(=O)C1CCC2(C)O (stereo not given)
T/C [1]: 88 % of control | T/C [2]: 97 % of control | T/C [3]: 100 % of control

S=C1NC(c2ccccc2)NC(c2ccccc2)S1 (stereo not given)
T/C (dose: 100.0 mg/kg/injection, schedule: Q01DX001 (ip), vehicle: Klucel (hydroxypropylcellulose) (HPC)): 92 % of control | T/C (dose: 200.0 mg/kg/injection, schedule: Q01DX001 (ip), vehicle: Klucel (hydroxypropylcellulose) (HPC)): 92 % of control | T/C (dose: 400.0 mg/kg/injection, schedule: Q01DX001 (ip), vehicle: Klucel (hydroxypropylcellulose) (HPC)): 96 % of control
